Laboratory results as given in patent publication US20130005747A1, “METHOD FOR SELECTING A CANCER THERAPY” (Cyclacel Limited, priority 2010, published 2013).

Columns and labels:
Test in all cases: Fractional growth, 72 h seliciclib
Assay type in all cases: cell-based, human
HSC-4 = HSC-4 (Head & Neck), 15 μM seliciclib
Excerpt: (§1) A total of 270 human cancer cell lines from diverse cancer histopathologic types were investigated.

RT-112 = RT-112 (Bladder), 15 μM seliciclib
Excerpt: as §1

HeLa = HeLa (Cervix), 15 μM seliciclib
Excerpt: as §1

UM-UC-3 = UM-UC-3 (Bladder), 15 μM seliciclib
Excerpt: as §1

LNZTA3WT4 = LNZTA3WT4 (Brain), 15 μM seliciclib
Excerpt: as §1

NCI-H2030 = NCI-H2030 (Lung: NSCLC), 15 μM seliciclib
Excerpt: as §1

Calu-1 = Calu-1 (Lung: NSCLC), 15 μM seliciclib
Excerpt: as §1

KP-3 = KP-3 (Pancreas), 15 μM seliciclib
Excerpt: as §1

NCI-H2172 = NCI-H2172 (Lung: NSCLC), 15 μM seliciclib
Excerpt: as §1

HT 1080 = HT 1080 (Miscellaneous), 15 μM seliciclib
Excerpt: as §1

BFTC-909 = BFTC-909 (Kidney), 15 μM seliciclib
Excerpt: as §1

RVH-421 = RVH-421 (Skin), 15 μM seliciclib
Excerpt: as §1

BFTC-905 = BFTC-905 (Bladder), 15 μM seliciclib
Excerpt: as §1

A-427 = A-427 (Lung: NSCLC), 15 μM seliciclib
Excerpt: as §1

NCI-H2228 = NCI-H2228 (Lung: NSCLC), 15 μM seliciclib
Excerpt: as §1

NCI-H727 = NCI-H727 (Lung), 15 μM seliciclib
Excerpt: as §1

PC-9 = PC-9 (Lung: NSCLC), 15 μM seliciclib
Excerpt: as §1

Ca9-22 = Ca9-22 (Head & Neck), 15 μM seliciclib
Excerpt: as §1

769-P = 769-P (Kidney), 15 μM seliciclib
Excerpt: as §1

VMRC-RCZ = VMRC-RCZ (Kidney), 15 μM seliciclib
Excerpt: as §1

143B = 143B (Bone), 15 μM seliciclib
Excerpt: as §1

MKN1 = MKN1 (Stomach), 15 μM seliciclib
Excerpt: as §1

PCI-30 = PCI-30 (Head & Neck), 15 μM seliciclib
Excerpt: as §1

NCI-H1781 = NCI-H1781 (Lung: NSCLC), 15 μM seliciclib
Excerpt: as §1

SAS = SAS (Head & Neck), 15 μM seliciclib
Excerpt: as §1

Detroit 562 = Detroit 562 (Head & Neck), 15 μM seliciclib
Excerpt: as §1

NCI-H1651 = NCI-H1651 (Lung: NSCLC), 15 μM seliciclib
Excerpt: as §1

SK-MES = SK-MES (Lung: NSCLC), 15 μM seliciclib
Excerpt: as §1

KU-19-19 = KU-19-19 (Bladder), 15 μM seliciclib
Excerpt: as §1

SW 48 = SW 48 (Intestine), 15 μM seliciclib
Excerpt: as §1

DBTRG-05MG = DBTRG-05MG (Brain), 15 μM seliciclib
Excerpt: as §1

LS174T = LS174T (Intestine), 15 μM seliciclib
Excerpt: as §1

T98G = T98G (Brain), 15 μM seliciclib
Excerpt: as §1

22RV1 = 22RV1 (Prostate), 15 μM seliciclib
Excerpt: as §1

CaR-1 = CaR-1 (Intestine), 15 μM seliciclib
Excerpt: as §1

LU99C = LU99C (Lung: NSCLC), 15 μM seliciclib
Excerpt: as §1

OVCAR-5 = OVCAR-5 (Ovary), 15 μM seliciclib
Excerpt: as §1

## CC[C@H](CO)Nc1nc(NCc2ccccc2)c2ncn(C(C)C)c2n1 [seliciclib, roscovitine]
HSC-4
  Fractional Growth: 0.3894
RT-112
  Fractional Growth: 0.243
HeLa
  Fractional Growth: 0.9192
UM-UC-3
  Fractional Growth: 0.3538
LNZTA3WT4
  Fractional Growth: 0.6936
NCI-H2030
  Fractional Growth: 0.3063
Calu-1
  Fractional Growth: 0.6124
KP-3
  Fractional Growth: 0.3396
NCI-H2172
  Fractional Growth: 0.6197
HT 1080
  Fractional Growth: 0.2044
BFTC-909
  Fractional Growth: 0.7132
RVH-421
  Fractional Growth: 0.4165
BFTC-905
  Fractional Growth: 0.4198
A-427
  Fractional Growth: 0.4252
NCI-H2228
  Fractional Growth: 0.6493
NCI-H727
  Fractional Growth: 0.5866
PC-9
  Fractional Growth: 0.7822
Ca9-22
  Fractional Growth: 0.4623
769-P
  Fractional Growth: 0.602
VMRC-RCZ
  Fractional Growth: 0.5994
143B
  Fractional Growth: 0.6124
MKN1
  Fractional Growth: 0.3594
PCI-30
  Fractional Growth: 0.5541
NCI-H1781
  Fractional Growth: 0.6273
SAS
  Fractional Growth: 0.3207
Detroit 562
  Fractional Growth: 0.1846
NCI-H1651
  Fractional Growth: 0.6289
SK-MES
  Fractional Growth: 0.4439
KU-19-19
  Fractional Growth: 0.3033
SW 48
  Fractional Growth: 0.1123
DBTRG-05MG
  Fractional Growth: 0.7139
LS174T
  Fractional Growth: 0.3713
T98G
  Fractional Growth: 0.4404
22RV1
  Fractional Growth: 0.7432
CaR-1
  Fractional Growth: 0.5795
LU99C
  Fractional Growth: 0.3864
OVCAR-5
  Fractional Growth: 0.4053
